Results: PubChem BioAssay (NCI)
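How tested: cells in 96-well plates exposed to compound for 48 hours at five concentrations. TGI: concentration producing complete growth inhibition.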

Legend:
Assay in all cases: NCI-60 cell line screen, 48 h
COLO 205 colon = system: COLO 205 colon
EKVX NSCLC = system: EKVX NSCLC
HT29 colon = system: HT29 colon
K-562 leukemia = system: K-562 leukemia
M14 melanoma = system: M14 melanoma
NCI-H23 lung = system: NCI-H23 lung
OVCAR-8 ovarian = system: OVCAR-8 ovarian
SNB-75 CNS = system: SNB-75 CNS
SW-620 colon = system: SW-620 colon
UACC-62 melanoma = system: UACC-62 melanoma
CAKI-1 renal = system: CAKI-1 renal
MALME-3M melanoma = system: MALME-3M melanoma
SK-MEL-2 melanoma = system: SK-MEL-2 melanoma

| SMILES | TGI (COLO 205 colon) | TGI (EKVX NSCLC) | TGI (HT29 colon) | TGI (K-562 leukemia) | TGI (M14 melanoma) | TGI (NCI-H23 lung) | TGI (OVCAR-8 ovarian) | TGI (SNB-75 CNS) | TGI (SW-620 colon) | TGI (UACC-62 melanoma) | TGI (CAKI-1 renal) | TGI (MALME-3M melanoma) | TGI (SK-MEL-2 melanoma) |
| --- | --- | --- | --- | --- | --- | --- | --- | --- | --- | --- | --- | --- | --- |
| C1CC[C@H]2SSC3CCCC[C@H]3SSC2C1 (stereo partly drawn) | > 100 µM | > 100 µM | > 100 µM | > 100 µM | > 100 µM | > 100 µM | > 100 µM | > 100 µM | > 100 µM | > 100 µM |  |  |  |
| COc1ccc(C2CC3(c4ccccc4)ON=C(c4ccccc4)N3c3ccccc3S2)cc1 (stereo not drawn) | > 100 µM | > 100 µM | > 100 µM |  | > 100 µM | > 100 µM | > 100 µM | > 100 µM | > 100 µM | > 100 µM | > 100 µM | > 100 µM |  |
| O=Cc1ccc(CCl)cc1 | > 100 µM | > 100 µM | 34.2 µM | > 100 µM | 33.4 µM |  | 35.2 µM |  | 52.1 µM | 27.3 µM |  |  | 32.2 µM |
| CN1CN(c2ccccc2)C2(CCN(CCC3COc4ccccc4O3)CC2)C1=O (stereo not drawn) | 34.2 µM | 51.4 µM | 19.6 µM | 44.9 µM | 42 µM | > 100 µM | > 100 µM | > 100 µM | > 100 µM | 91.6 µM | 77.5 µM | 38.5 µM |  |
| O=C(NCCNCCCNC(=O)c1cc(-c2ccccc2)nc2ccccc12)c1cccc(OCc2ccccc2)c1OCc1ccccc1 | 3.11 µM | 3.1 µM | 2.98 µM | 3.48 µM | 3.1 µM | 3.35 µM | 3.15 µM | 3.39 µM | 3.35 µM | 3.61 µM | 3.01 µM | 3.58 µM |  |
| CSc1ncc2c(n1)sc1c(=O)n(-c3ccccc3)cnc12 | > 100 µM |  | > 100 µM | > 100 µM | > 100 µM | > 100 µM | > 100 µM | > 100 µM | > 100 µM | > 100 µM | > 100 µM | > 100 µM | > 100 µM |
| COc1ccc(C(=O)/C=C/c2ccc(OCCSCCCCCCCCCCSCCOc3ccc(/C=C/C(=O)c4ccc(OC)c(OC)c4)cc3)cc2)cc1OC | > 100 µM | > 100 µM | > 100 µM | > 100 µM | > 100 µM | > 100 µM | > 100 µM | > 100 µM | > 100 µM | > 100 µM | > 100 µM | > 100 µM |  |
| CSc1nc2c(ncn2C2OCC(O)C(O)C2O)c(=O)n1C (stereo not drawn) | > 100 µM | > 100 µM | > 100 µM | > 100 µM |  | > 100 µM | > 100 µM | > 100 µM | > 100 µM | > 100 µM |  | > 100 µM | > 100 µM |
| O=C(C/C(=N/O)c1cc(-c2ccccc2)no1)c1ccccc1 | > 100 µM | > 100 µM | > 100 µM | > 100 µM | > 100 µM | 43.3 µM | 40.3 µM |  |  | > 100 µM | > 100 µM | > 100 µM | > 100 µM |
| CN1CCC2(CC1)C(=NC1CCCCC1)NC(=S)N2c1ccccc1 | > 100 µM | > 100 µM | > 100 µM | > 100 µM | > 100 µM | > 100 µM | > 100 µM | > 100 µM | > 100 µM | > 100 µM |  | > 100 µM |  |
| O=C1CSC(c2c[nH]c3ccccc23)N1c1ccccc1[N+](=O)[O-] (stereo not drawn) | > 100 µM | > 100 µM | > 100 µM | > 100 µM | > 100 µM | > 100 µM | > 100 µM |  | > 100 µM | > 100 µM |  |  |  |
| COc1ccc2cc(-c3nc(N)nc(N4N=C(C)CC4(C)C)n3)c(=N)oc2c1 | 30.8 µM | 67.2 µM | 31.7 µM | 40.2 µM | 38.1 µM | 31.8 µM | 49.8 µM |  |  | 36.3 µM | 38 µM | 32.7 µM | 35.7 µM |
| CSc1ccc(/C=C2\N=C(c3ccccc3)N(c3nc4cc(C)c(C)cc4s3)C2=O)cc1 | > 100 µM | 85.9 µM | 47.9 µM | > 100 µM | 75.8 µM |  | 43.9 µM | 55.2 µM | > 100 µM | > 100 µM | > 100 µM |  | 34.1 µM |
| CC(=O)NC(Cc1ccsc1)C(=O)O (stereo not drawn) | > 100 µM | > 100 µM | > 100 µM | > 100 µM |  | > 100 µM | > 100 µM | > 100 µM | > 100 µM | > 100 µM | > 100 µM | > 100 µM | > 100 µM |
| COC(=O)C1=C(C)C=C(N2CCOCC2)C(C(=O)OC)C1c1ccccc1 (stereo not drawn) | > 10 µM | > 10 µM | > 10 µM | > 10 µM | > 10 µM | > 10 µM | > 10 µM | > 10 µM | > 10 µM |  | > 10 µM | > 10 µM | > 10 µM |
| NC12CCC(CC1=O)C2 (stereo not drawn) | > 100 µM | > 100 µM | > 100 µM | > 100 µM | > 100 µM | > 100 µM | > 100 µM | > 100 µM | > 100 µM | > 100 µM |  | > 100 µM | > 100 µM |
| CCOC(=O)c1[nH]cc(C)c1-c1ccc2c(-c3ccccc3)nc3ccccc3n12 | 14.2 µM | 18.2 µM | 11.9 µM | 9.13 µM | 27.5 µM | 23.3 µM | 16.7 µM | 5.87 µM | 16.5 µM | 10.8 µM | 17.8 µM |  | 16.8 µM |
| O=C(O)C12CCCCC1CCCC2 (stereo not drawn) | > 100 µM | > 100 µM | > 100 µM | > 100 µM | > 100 µM | > 100 µM | > 100 µM | > 100 µM | > 100 µM | > 100 µM | > 100 µM |  |  |
| O=C(CCCl)NNC1=NCCCN1 | > 100 µM | > 100 µM | > 100 µM | > 100 µM | > 100 µM | > 100 µM | > 100 µM | > 100 µM | > 100 µM | > 100 µM |  | > 100 µM | > 100 µM |
